We go through 17 compounds from patent US8501762B2, “Tetrahydroprotoberberine compounds, the synthetic method and the use thereof” (Shanghai Institute of Materia Medica, Chinese Academy of …, priority 2005, dated 2013).

Molecules are shown by their SMILES. Structures can show the parent of a compound that is named as a salt.

One data set concerns the target dopamine D2 receptor (Homo sapiens, UniProt P14416). Briefly: Dopamine receptor competitive binding, D2. As to conditions: for inhibition at 10 µM / Inhibition(%) for D2: tested at 1 × 10^−5 mol/L; for Ki: calculated from the inhibition data. Here is the method:
(§1) 1. Dopamine Receptor Binding Studies
The affinities of these compounds on dopamine receptors were evaluated with competitive receptor binding assays (Acta Pharmacol Sin, 1989, 10:104 and Acta Pharmacol Sin, 2003, 24(3): 225-229). The Ki is calculated according the inhibition data tested.

In another data set the target is dopamine D1 receptor (Homo sapiens, UniProt P21728). Kind of data set: Dopamine receptor competitive binding, D1. Particulars: for Ki: calculated from the inhibition data; for inhibition at 10 µM / Inhibition(%) for D1: tested at 1 × 10^−5 mol/L. The method, then:
as §1
The Ki is calculated according the inhibition data tested.

The test system of the next data set is 6-OHDA-lesioned rats. Briefly: 6-OHDA-lesioned rats rotation test. Format: in vivo. As to conditions: 10 mg/kg. The method, then: 2. 6-OHDA-Lesioned Rats Rotation Test
Some of the compounds were evaluated on 6-OHDA-lesioned rats model.

In another data set the test system is mice. Briefly: PCP-induced immobility test in mice. It counts as in vivo. Particulars: 20 mg/kg (i.g.), PCP-treated mice; PCP group 78.1±28 s, P<0.05. Here is the method: 3. PCP-Induced Immobility Test in Mice
Phencyclidine(PCP)-induced immobility test in mice was selected as the model to evaluate the antipsychotic effect of some compounds of the present invention (Br J Pharmacol, 1995, 116: 2531-2537). The dose is selected according the ED50 of l-CSLMS. Given PCP, immobility times of mice was increased, whereas the active compound can decrease the immobility time. At 20 mg/kg (i.g.), the immobility time of compound of example 47 is 54.9±19 s, and the immobility time of l-CSLMS is 48.0±27 s, which has statistically significant differences (P<0.05) compared to PCP group (78.1±28 s).

The conditions of data set [1]: preliminary clinic studies, cited from earlier work.

Chain of dopamine D1 receptor (P21728 whole entry): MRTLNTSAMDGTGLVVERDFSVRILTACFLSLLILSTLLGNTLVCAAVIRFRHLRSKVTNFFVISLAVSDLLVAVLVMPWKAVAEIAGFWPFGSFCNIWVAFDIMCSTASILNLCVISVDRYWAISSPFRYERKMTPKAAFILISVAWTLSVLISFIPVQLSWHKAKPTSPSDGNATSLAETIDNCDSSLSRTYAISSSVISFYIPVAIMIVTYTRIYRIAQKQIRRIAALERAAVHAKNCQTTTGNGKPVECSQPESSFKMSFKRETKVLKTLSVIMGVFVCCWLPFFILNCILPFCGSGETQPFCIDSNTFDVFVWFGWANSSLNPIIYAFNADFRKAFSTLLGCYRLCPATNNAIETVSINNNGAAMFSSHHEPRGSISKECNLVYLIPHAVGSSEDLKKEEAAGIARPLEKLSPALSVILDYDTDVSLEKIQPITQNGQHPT
Chain of dopamine D2 receptor (P14416 whole entry, species assumed): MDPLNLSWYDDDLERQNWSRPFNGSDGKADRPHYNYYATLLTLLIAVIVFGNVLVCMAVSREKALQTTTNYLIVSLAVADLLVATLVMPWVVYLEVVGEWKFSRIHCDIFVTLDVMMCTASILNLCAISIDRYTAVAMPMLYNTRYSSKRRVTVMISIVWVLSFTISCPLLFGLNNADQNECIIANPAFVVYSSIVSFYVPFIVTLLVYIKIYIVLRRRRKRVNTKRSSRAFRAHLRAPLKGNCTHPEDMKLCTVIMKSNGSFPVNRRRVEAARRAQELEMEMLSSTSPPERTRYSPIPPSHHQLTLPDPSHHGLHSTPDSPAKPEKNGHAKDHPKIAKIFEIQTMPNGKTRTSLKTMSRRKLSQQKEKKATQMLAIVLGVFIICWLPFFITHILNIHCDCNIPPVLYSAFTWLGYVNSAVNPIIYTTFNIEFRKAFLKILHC

One may read the inhibition as the share of the control response that was lost under treatment. A higher inhibition goes with strong suppression. A word on the Ki: it is a dissociation constant, usually derived from enzyme kinetics or from competition with a known ligand. For `CCOC(=O)Oc1c(OC)cc(Cl)c2c1CN1CCc3cc(OC)c(O)cc3C1C2` (stereo not drawn) [Example 21, 2-hydroxy-3,10-dimethoxy-9-ethoxycarbonyloxy-12-chloro-5,8,13,13a-tetrahydro-6H-dibenzo[a,g]quinolizine], the inhibition at 10 µM at dopamine D2 receptor and at dopamine D1 receptor was 100% each time. On dopamine D1 receptor, the Ki was 2.6 ± 0.7 nM.
`COc1cc2c(cc1O)C1Cc3c(Cl)cc(OC)c(OC(C)=O)c3CN1CC2` (single isomer, unassigned; (-)) [Example 50, (−)-2-hydroxy-3,10-dimethoxy-9-acetoxy-12-chloro-5,8,13,13a-tetrahydro-6H-dibenzo[a,g]quinolizine]: the “Inhibition(%) for D2” value on dopamine D2 receptor is 58.5%. For the same compound, at 10 µM the inhibition on dopamine D1 receptor was 100%.
With `COCCOCCOCC(=O)Oc1cc2c(cc1OC)CCN1Cc3c(c(Cl)cc(OC)c3OC(=O)COCCOCCOC)CC21` (stereo not drawn) [Example 42, 2,9-bis-{2-[2-(2-methoxy-ethoxy)-ethoxy]-acetoxy-}3,10-dimethoxy-12-chloro-5,8,13,13a-tetrahydro-6H-dibenzo[a,g]quinolizine], the Ki on dopamine D2 receptor was 14900 ± 200 nM; on dopamine D1 receptor, 35.4 ± 4.4 nM. Besides, the inhibition at 10 µM turned out to be 39.7% on dopamine D2 receptor and 96.2% on dopamine D1 receptor.
For `COc1cc2c(cc1OCc1ccccc1)C1Cc3c(Cl)cc(OC)c(OC(=O)[C@@H](N)Cc4ccccc4)c3CN1CC2` (stereo partly drawn) [Example 23, 2-benzyloxy-3,10-dimethoxy-9-phenylalanyloxy-12-chloro-5,8,13,13a-tetrahydro-6H-dibenzo[a,g]quinolizine], the inhibition at 10 µM on dopamine D2 receptor came out at 44%; at dopamine D1 receptor, 77.5%.
Turning to `COc1cc2c(cc1O)C1Cc3c(Cl)cc(OC)c(OC(C)=O)c3CN1CC2` (stereo not drawn) [Example 7, 2-hydroxy-3,10-dimethoxy-9-acetoxy-12-chloro-5,8,13,13a-tetrahydro-6H-dibenzo[a,g]quinolizine], on dopamine D2 receptor, the Ki was 6900 ± 1500 nM and the “Inhibition(%) for D2” value is 100.0%. Besides, on dopamine D1 receptor, the Ki is 10.7 ± 1 nM and the “Inhibition(%) for D1” value is 100%. Besides, in the data set on 6-OHDA-lesioned rats, the “effect in 6-OHDA-lesioned rats model” value is on record as “positive effects”.
For `COCCOCCOCC(=O)Oc1c(OC)cc(Cl)c2c1CN1CCc3cc(OC)c(O)cc3C1C2` (stereo not drawn) [Example 43, 2-hydroxy-3,10-dimethoxy-9-{2-[2-(2-methoxy-ethoxy)-ethoxy]-acetoxy-}-12-chloro-5,8,13,13a-tetrahydro-6H-dibenzo[a,g]quinolizine], on dopamine D1 receptor, the inhibitory constant (Ki) was 404 ± 188 nM.
In the case of `COc1cc2c(cc1O)C1Cc3c(Cl)cc(OC)c(OCCO)c3CN1CC2` (stereo not drawn) [Example 17, 2-hydroxy-3,10-dimethoxy-9-(2-hydroxy-ethoxy)-12-chloro-5,8,13,13a-tetrahydro-6H-dibenzo[a,g]quinolizine], the inhibition at 10 µM worked out at 57.4% on dopamine D2 receptor and 97.9% at dopamine D1 receptor.
For the compound `COc1cc2c(cc1OC(C)=O)C1Cc3ccc(OC(C)=O)c(OC)c3CN1CC2` (single isomer, unassigned; (-)) [Example 48, (−)-2,10-diacetoxy-3,9-dimethoxy-5,8,13,13a-tetrahydro-6H-dibenzo[a,g]quinolizine], the “effect in 6-OHDA-lesioned rats model” value in the data set on 6-OHDA-lesioned rats is given as “positive effects”.
`COc1cc(F)c2c(c1OC)CN1CCc3cc4c(cc3C1C2)OCO4` (stereo not drawn) [Example 63, 2,3-methylenedioxyl-9,10-dimethoxy-12-fluoro-5,8,13,13a-tetrahydro-6H-dibenzo[a,g]quinolizine]: on dopamine D1 receptor, the “Inhibition(%) for D1” value is given as 95.2%.
As to `COc1cc2c(cc1OC(C)=O)C1Cc3c(Cl)cc(OC)c(OC(C)=O)c3CN1CC2` (single isomer, unassigned; (-)) [Example 47, (−)-2,9-diacetoxy-3,10-dimethoxy-12-chloro-5,8,13,13a-tetrahydro-6H-dibenzo[a,g]quinolizine], the inhibition at 10 µM at dopamine D2 receptor worked out at 77.4%; at dopamine D1 receptor, 100%. The compound further returned an immobility time in the data set on mice of 54.9 ± 19 s.
With `CC(=O)O.COc1cc2c(cc1OC(C)=O)C1Cc3c(Cl)cc(OC)c(OC(C)=O)c3CN1CC2` (stereo not drawn) [Example 8, 2,9-diacetoxy-3,10-dimethoxy-12-chloro-5,8,13,13a-tetrahydro-6H-dibenzo[a,g]quinolizine acetate], on dopamine D2 receptor, the “Inhibition(%) for D2” value came out at 93.8%. Also, the “Inhibition(%) for D1” value on dopamine D1 receptor is listed as 100.0%.
As to `COc1cc2c(cc1OC(C)=O)C1Cc3ccc(OC)c(OC(C)=O)c3CN1CC2` (stereo not drawn) [Example 34, 2,9-diacetoxy-3,10-dimethoxy-5,8,13,13a-tetrahydro-6H-dibenzo[a,g]quinolizine], at dopamine D2 receptor, the Ki was 10600 ± 2600 nM and 10 µM produced 90.7% inhibition. For the same compound, on dopamine D1 receptor, the Ki was 51.8 ± 32.2 nM and at 10 µM the inhibition was 99.4%.
Take `Oc1cc2c(cc1O)C1Cc3c(Cl)cc(O)c(O)c3CN1CC2` (stereo not drawn) [Example 44, 2,3,9,10-tetrahydroxy-12-chloro-5,8,13,13a-tetrahydro-6H-dibenzo[a,g]quinolizine]: the inhibition at 10 µM on dopamine D2 receptor was determined as 93.3%; at dopamine D1 receptor it was 100%. For the same compound, the “effect in 6-OHDA-lesioned rats model” value with 6-OHDA-lesioned rats was “positive effects”.
A word on the melting point: it is the temperature of the solid-liquid transition. Consider `COc1cc2c(cc1OCc1ccccc1)C1Cc3c(Cl)cc(OC)c(OCCOCCO)c3CN1CC2` (stereo not drawn) [Example 18, 2-benzyloxy-3,10-dimethoxy-9-[2-(2-hydroxy-ethoxy)-ethoxy]-12-chloro-5,8,13,13a-tetrahydro-6H-dibenzo[a,g]quinolizine], for which the melting point turned out to be 122 °C.
For `COc1cc2c(cc1O)[C@@H]1Cc3c(Cl)cc(OC)c(O)c3CN1CC2` [l-CSLMS, S-chloroscoulerine mesylate, reference compound], at dopamine D2 receptor, the Ki is 1700 ± 500 nM. The compound also registered an immobility time in the data set with mice of 48.0 ± 27 s.
For `COc1cc2c(cc1O)[C@@H]1Cc3ccc(O)c(OC)c3CN1CC2` [l-SPD, l-Stepholidine], the side effects result in data set [1] (schizophrenia) is listed as “few side effects”. For the same compound, in data set [1], the “activity in the treatment of schizophrenia” value is reported as “favorable activity”.
On to `COc1cc2c(cc1O)C1Cc3c(Cl)cc(OC)c(O)c3CN1CC2` (stereo not drawn) [CSL, 2,9-dihydroxy-3,10-dimethoxy-12-chloro-5,8,13,13a-tetrahydro-6H-dibenzo[a,g]quinolizine, reference compound], for which the inhibitory constant (Ki) at dopamine D1 receptor is 6.1 ± 3 nM.
